Assay in all cases: NCI 60 cell line single dose screen (SRB)
Holding throughout (assay type): cell-based

One assay has as its system SK-MEL-5. The conditions noted are these: Homo sapiens; SK-MEL-5 (melanoma), single dose 10^−5 M, 48 h; read-out: Growth inhibition percentage. On the procedure: (§1) Anticancer activity screening of the newly synthesised compounds was measured in vitro utilising 60 different human tumour cell lines provided by US National Cancer Institute according to previously reported standard procedure[27–29] as follows: Cells are inoculated into 96-well microtitre plates in 100 ml. After cell inoculation, the microtitre plates are incubated at 37 °C, 5% CO2, 95% air and 100% relative humidity for 24 h prior to addition of experimental compounds. After 24 h, two plates of each cell line are fixed in situ with TCA, to represent a measurement of the cell population for each cell line at the time of drug addition (Tz). Experimental compounds are solubilised in dimethyl sulphoxide at 400-fold the desired final maximum test concentration and stored frozen prior to use. At the time of compound addition, an aliquot of frozen concentrate is thawed and diluted to twice the desired final maximum test concentration with complete medium containing […] gentamicin. Aliquots of […] of the compounds dilutions are added to the appropriate microtitre wells already containing 100 ml of medium, resulting in the required final compound concentration. Following compound addition, the plates are incubated for an additional 48 h at 37 °C, 5% CO2, 95% air, and 100% relative humidity. For adherent cells, the assay is terminated by the addition of cold trichloroacetic acid (TCA). Cells are fixed in situ by the gentle addition of 50 ml of cold 50% (w/v) TCA (final concentration, 10% TCA) and incubated for 60 min at 4 °C. The supernatant is discarded, and the plates are washed five times with tap water and air-dried. Sulphorhodamine B (SRB) solution (100 ml) at 0.4% (w/v) in 1% acetic acid is added to each well, and plates are incubated for 10 min at room temperature. After staining, unbound dye is removed by washing five times with 1% acetic acid and the plates are air-dried. Bound stain is subsequently solubilised with 10 mM trizma base, and the absorbance is read on an automated plate reader at a wavelength of 515 nm. For suspension cells, the methodology is the same except that the assay is terminated by fixing settled cells at the bottom of the wells by gently adding 50 ml of 80% TCA (final concentration, 16% TCA). Using the absorbance measurements [time zero, (Tz), control growth, (C), and test growth in the presence of compound (Ti)], the percentage growth is calculated for each compound. Percentage growth inhibition is calculated as: [(Ti – Tz)/(C – Tz)] x 100 for concentrations for which Ti >/=Tz. [(Ti – Tz)/Tz] x 100 for concentrations for which Ti < Tz.

In a further assay the test system is NCI-H23. The conditions noted are these: Homo sapiens; NCI-H23 (non-small cell lung cancer), single dose 10^−5 M, 48 h; read-out: Growth inhibition percentage. The method, then:
as §1

A further assay relates to MCF7. The conditions noted are these: Homo sapiens; MCF7 (breast cancer), single dose 10^−5 M, 48 h; read-out: Growth inhibition percentage. On the procedure: as §1
A further assay has as its system SNB-19. The conditions noted are these: Homo sapiens; SNB-19 (CNS cancer), single dose 10^−5 M, 48 h; read-out: Growth inhibition percentage. The method, then: as §1
The test system of a further assay is NCI-H226. The conditions noted are these: Homo sapiens; NCI-H226 (non-small cell lung cancer), single dose 10^−5 M, 48 h; read-out: Growth inhibition percentage. On the procedure: as §1
The test system of another assay is DU-145. The conditions noted are these: Homo sapiens; DU-145 (prostate cancer), single dose 10^−5 M, 48 h; read-out: Growth inhibition percentage. On the procedure: as §1
The test system of a further assay is OVCAR-3. The conditions noted are these: Homo sapiens; OVCAR-3 (ovarian cancer), single dose 10^−5 M, 48 h; read-out: Growth inhibition percentage. On the procedure: as §1
The subject of a further assay is SF-593. The conditions noted are these: Homo sapiens, SF-593 (CNS cancer), single dose 10^−5 M, 48 h, read-out: Growth inhibition percentage. On the procedure:
as §1

For the next assay, the system named is OVCAR-4. The conditions noted are these: Homo sapiens; OVCAR-4 (ovarian cancer), single dose 10^−5 M, 48 h; read-out: Growth inhibition percentage. The method, then: as §1
The next assay deals with SR. The conditions noted are these: Homo sapiens; SR (leukemia), single dose 10^−5 M, 48 h; read-out: Growth inhibition percentage. The method, then:
as §1

The subject of a further assay is MDA-MB-435. The conditions noted are these: Homo sapiens; MDA-MB-435 (melanoma), single dose 10^−5 M, 48 h; read-out: Growth inhibition percentage. On the procedure:
as §1

For the next assay, the system named is SK-MEL-2. The conditions noted are these: Homo sapiens; SK-MEL-2 (melanoma), single dose 10^−5 M, 48 h; read-out: Growth inhibition percentage. On the procedure: as §1
For another assay, the system named is SNB-75. The conditions noted are these: Homo sapiens; SNB-75 (CNS cancer), single dose 10^−5 M, 48 h; read-out: Growth inhibition percentage. On the procedure: as §1
The test system of a further assay is A549/ATCC. The conditions noted are these: Homo sapiens; A549/ATCC (non-small cell lung cancer), single dose 10^−5 M, 48 h; read-out: Growth inhibition percentage. The method, then: as §1
The subject of another assay is HL-60(TB). The conditions noted are these: Homo sapiens; HL-60(TB) (leukemia), single dose 10^−5 M, 48 h; read-out: Growth inhibition percentage. The method, then:
as §1

The subject of a further assay is ACHN. The conditions noted are these: Homo sapiens; ACHN (renal cancer), single dose 10^−5 M, 48 h; read-out: Growth inhibition percentage. The method, then: as §1
The next assay has as its system SF-268. The conditions noted are these: Homo sapiens; SF-268 (CNS cancer), single dose 10^−5 M, 48 h; read-out: Growth inhibition percentage. The method, then: as §1
The subject of a further assay is 786-0. The conditions noted are these: Homo sapiens; 786-0 (renal cancer), single dose 10^−5 M, 48 h; read-out: Growth inhibition percentage. The method, then: as §1
The next assay deals with HCT-116. The conditions noted are these: Homo sapiens; HCT-116 (colon cancer), single dose 10^−5 M, 48 h; read-out: Growth inhibition percentage. On the procedure:
as §1

For a further assay, the system named is A498. The conditions noted are these: Homo sapiens; A498 (renal cancer), single dose 10^−5 M, 48 h; read-out: Growth inhibition percentage. On the procedure:
as §1

In the next assay the test system is LOX IMVI. The conditions noted are these: Homo sapiens; LOX IMVI (melanoma), single dose 10^−5 M, 48 h; read-out: Growth inhibition percentage. The method, then:
as §1

Here are results for 5 compounds from publication PMC6352943, “Novel pyrazolo[3,4-d]pyrimidines: design, synthesis, anticancer activity, dual EGFR/ErbB2 receptor tyrosine kinases inhibitory activity, effects on cell cycle profile and caspase-3-mediated apoptosis” (Journal of Enzyme Inhibition and Medicinal Chemistry, 2019).

As for `COc1cc(C=NNc2ncnc3c2c(C)nn3-c2ccc(F)cc2)ccc1O` [Compound 10b, 1–(4-Fluorophenyl)-4–(2-(4-hydroxy-3-methoxybenzylidene)-hydrazinyl)-3-methyl-1H-pyrazolo[3,4-d]pyrimidine], the inhibition at 10 µM in the assay with SK-MEL-5 was 43.4%; in the assay with NCI-H23, 9.39%; in the assay on MCF7 it was 14.7%; in the assay on SNB-19 it was 6.67%; in the assay on NCI-H226, -2.3%; in the assay on DU-145, 12.4%. In addition, the inhibition at 10 µM in the assay with OVCAR-3 was 24.2%; with SF-593, 3.85%; with OVCAR-4, 9.65%; in the assay on SR it was 22.9%; in the assay on MDA-MB-435, 4.56%; with SK-MEL-2, 10.2%. Also, the inhibition at 10 µM was 17.5% with SNB-75; 2.36% in the assay on A549/ATCC; 1.69% in the assay with HL-60(TB); 7.34% with ACHN; 29% with SF-268; 11.3% in the assay with 786-0. Also, the inhibition at 10 µM is -4.51% in the assay on HCT-116, -3.34% with A498 and 19% in the assay on LOX IMVI.

As to `Cc1ccc(Nc2ncnc3c2c(C)nn3-c2ccc(F)cc2)cc1` [Compound 7c, 1–(4-Fluorophenyl)-3-methyl-N-(p-tolyl)-1H-pyrazolo[3,4-d]-pyrimidin-4-amine], the inhibition at 10 µM is -3.74% in the assay on SK-MEL-5; 4.63% in the assay on NCI-H23; 6.19% in the assay on MCF7; 7.21% in the assay with SNB-19; -10.2% with NCI-H226; -8.97% in the assay with DU-145. The inhibition at 10 µM with OVCAR-3 was -6.58%; in the assay on SF-593, -1.94%; with OVCAR-4, -3.91%; in the assay with SR, 6.02%; with MDA-MB-435 it was -6.94%; in the assay with SK-MEL-2 it was 10.9%. In addition, the inhibition at 10 µM is -5.2% with SNB-75; 3.08% with A549/ATCC; 16% with HL-60(TB); -12.2% in the assay on ACHN; 1.06% in the assay with SF-268; 0.56% in the assay on 786-0. Further, the inhibition at 10 µM in the assay on HCT-116 is 3.2%; in the assay with A498, 5.97%; in the assay on LOX IMVI, -0.99%.

Turning to `Cc1nn(-c2ccc(F)cc2)c2ncnc(Cl)c12` [Compound 6, 4-Chloro-1–(4-fluorophenyl)-3-methyl-1H-pyrazolo[3,4-d]pyrimidine], the inhibition at 10 µM in the assay on SK-MEL-5 amounted to 5.94%; with NCI-H23 it was 7.86%; in the assay on MCF7 it was 11.6%; with SNB-19, 7.79%; in the assay with NCI-H226, 15.1%; with DU-145, 3.05%. Also, the inhibition at 10 µM with OVCAR-3 was -8.39%; with SF-593, -7.81%; in the assay on OVCAR-4 it was -0.8%; with SR, 14.4%; in the assay with MDA-MB-435, -8.83%; in the assay with SK-MEL-2 it was 11%. The inhibition at 10 µM is 6.36% in the assay with SNB-75; 11.6% in the assay on A549/ATCC; 14% in the assay with HL-60(TB); 4.11% in the assay on ACHN; -1.16% in the assay on SF-268; -0.09% in the assay with 786-0. The inhibition at 10 µM with HCT-116 was 7.98%; in the assay on A498 it was 4.71%; in the assay on LOX IMVI it was 6.64%.

Turning to `Cc1nn(-c2ccc(F)cc2)c2ncnc(N3CCOCC3)c12` [Compound 8a, 1–(4-Fluorophenyl)-3-methyl-4-morpholino-1H-pyrazolo[3,4-d]pyrimidine], the inhibition at 10 µM in the assay with SK-MEL-5 is -0.67%; in the assay on NCI-H23, 0.28%; in the assay with MCF7, 9.07%; in the assay with SNB-19, 5.14%; in the assay with NCI-H226 it was -8.48%; with DU-145, -7.7%. Further, the inhibition at 10 µM in the assay on OVCAR-3 was -5.65%; in the assay on SF-593 it was -8.46%; with OVCAR-4 it was -10.7%; in the assay on SR it was 1.18%; in the assay with MDA-MB-435, -2.24%; in the assay on SK-MEL-2 it was 1.49%. The inhibition at 10 µM in the assay on SNB-75 was 0.92%; with A549/ATCC, -0.09%; with HL-60(TB), 22.5%; with ACHN, -10.3%; in the assay with SF-268, -0.79%; in the assay with 786-0 it was 10.6%. For the same compound, the inhibition at 10 µM was -7.69% in the assay on HCT-116, 4.93% in the assay with A498 and -2.33% in the assay on LOX IMVI.

Take `Cc1nn(-c2ccc(F)cc2)c2ncnc(N)c12` [Compound 4, 1–(4-Fluorophenyl)-3-methyl-1H-pyrazolo[3,4-d]pyrimidin-4-amine]: the inhibition at 10 µM with SK-MEL-5 was 2%; with NCI-H23, 4.73%; in the assay on MCF7, 9.82%; in the assay with SNB-19, -9.19%; with NCI-H226, -7.4%; with DU-145 it was -7.26%. The inhibition at 10 µM is -2.81% in the assay with OVCAR-3; -1.06% in the assay with SF-593; -4.38% with OVCAR-4; 3.35% with SR; -5.15% in the assay on MDA-MB-435; 1.74% with SK-MEL-2. In addition, the inhibition at 10 µM in the assay with SNB-75 is 8.18%; in the assay with A549/ATCC, -4.88%; in the assay with HL-60(TB), 7.87%; in the assay with ACHN it was 0.98%; in the assay on SF-268, 3.71%; with 786-0, 9.41%. Moreover, the results for the inhibition at 10 µM in the assay on HCT-116, in the assay with A498 and in the assay with LOX IMVI were -8.66%, 0.68% and 1.75%, respectively.
